Test: excess molar enthalpy (molar enthalpy of mixing); xn = mol fraction of the nth substance listed
Settings: 100 kPa, Liquid, Calvet calorimetry

NCCNCCNCCN [1,2-ethanediamine, N,N'-bis(2-aminoethyl)-] + O
Settings	excess molar enthalpy [kcal/mol]
303.15 K, x1 = 0.0497	-0.671
303.15 K, x1 = 0.0697	-0.889
303.15 K, x1 = 0.1129	-1.25
303.15 K, x1 = 0.2006	-1.57
303.15 K, x1 = 0.2478	-1.62
303.15 K, x1 = 0.3031	-1.6
303.15 K, x1 = 0.3527	-1.55
303.15 K, x1 = 0.4038	-1.4
303.15 K, x1 = 0.5069	-1.15
303.15 K, x1 = 0.589	-0.974
303.15 K, x1 = 0.701	-0.71
323.15 K, x1 = 0.0496	-0.633
323.15 K, x1 = 0.1103	-1.2
323.15 K, x1 = 0.1998	-1.44
323.15 K, x1 = 0.2469	-1.5
323.15 K, x1 = 0.3041	-1.49
323.15 K, x1 = 0.4041	-1.32
323.15 K, x1 = 0.4995	-1.11
323.15 K, x1 = 0.602	-0.91
323.15 K, x1 = 0.7006	-0.636

NCCOCCO [2-(2-aminoethoxy)ethanol] + O
Settings	excess molar enthalpy [kcal/mol]
303.15 K, x1 = 0.0626	-0.24
303.15 K, x1 = 0.1041	-0.355
303.15 K, x1 = 0.1949	-0.509
303.15 K, x1 = 0.3027	-0.551
303.15 K, x1 = 0.3448	-0.565
303.15 K, x1 = 0.398	-0.556
303.15 K, x1 = 0.5045	-0.483
303.15 K, x1 = 0.604	-0.414
303.15 K, x1 = 0.7062	-0.333
303.15 K, x1 = 0.8105	-0.223
303.15 K, x1 = 0.9035	-0.11
323.15 K, x1 = 0.0628	-0.222
323.15 K, x1 = 0.1062	-0.335
323.15 K, x1 = 0.1982	-0.468
323.15 K, x1 = 0.3017	-0.527
323.15 K, x1 = 0.342	-0.539
323.15 K, x1 = 0.4004	-0.527
323.15 K, x1 = 0.5053	-0.483
323.15 K, x1 = 0.5967	-0.417
323.15 K, x1 = 0.7043	-0.329
323.15 K, x1 = 0.8037	-0.224
323.15 K, x1 = 0.9032	-0.107

CN(C)CCN(C)CCO [2-{[2-(dimethylamino)ethyl](methyl)amino}ethanol] + O
303.15 K
Settings	excess molar enthalpy [kcal/mol]
x1 = 0.1012	-0.696
x1 = 0.2028	-0.863
x1 = 0.25	-0.894
x1 = 0.3015	-0.862
x1 = 0.4004	-0.836
x1 = 0.4989	-0.716

CN(C)CCCO [3-dimethylamino-1-propanol] + O
Settings	excess molar enthalpy [kcal/mol]
303.15 K, x1 = 0.0505	-0.252
303.15 K, x1 = 0.1027	-0.436
303.15 K, x1 = 0.1998	-0.601
303.15 K, x1 = 0.3003	-0.683
303.15 K, x1 = 0.3515	-0.689
303.15 K, x1 = 0.3975	-0.69
303.15 K, x1 = 0.5019	-0.647
303.15 K, x1 = 0.6483	-0.502
303.15 K, x1 = 0.8001	-0.301
303.15 K, x1 = 0.9452	-0.0951
323.15 K, x1 = 0.0495	-0.229
323.15 K, x1 = 0.1003	-0.35
323.15 K, x1 = 0.1782	-0.485
323.15 K, x1 = 0.3006	-0.587
323.15 K, x1 = 0.3485	-0.597
323.15 K, x1 = 0.3981	-0.6
323.15 K, x1 = 0.4977	-0.568
323.15 K, x1 = 0.6455	-0.438
323.15 K, x1 = 0.7962	-0.269
323.15 K, x1 = 0.9446	-0.0743

CCN(CC)CCO [(diethylamino)ethanol] + O
Settings	excess molar enthalpy [kcal/mol]
303.15 K, x1 = 0.0504	-0.253
303.15 K, x1 = 0.1001	-0.377
303.15 K, x1 = 0.2008	-0.522
303.15 K, x1 = 0.301	-0.607
303.15 K, x1 = 0.3688	-0.62
303.15 K, x1 = 0.387	-0.625
303.15 K, x1 = 0.4002	-0.621
303.15 K, x1 = 0.4522	-0.611
303.15 K, x1 = 0.5002	-0.598
303.15 K, x1 = 0.5998	-0.528
303.15 K, x1 = 0.7003	-0.418
303.15 K, x1 = 0.8007	-0.288
303.15 K, x1 = 0.901	-0.144
323.15 K, x1 = 0.0502	-0.192
323.15 K, x1 = 0.1009	-0.296
323.15 K, x1 = 0.1951	-0.407
323.15 K, x1 = 0.3002	-0.482
323.15 K, x1 = 0.369	-0.499
323.15 K, x1 = 0.4006	-0.502
323.15 K, x1 = 0.5005	-0.477
323.15 K, x1 = 0.6	-0.422
323.15 K, x1 = 0.6191	-0.386
323.15 K, x1 = 0.6997	-0.341
323.15 K, x1 = 0.8005	-0.252
323.15 K, x1 = 0.9006	-0.12

CN(C)CCN(C)CCN(C)C [N,N,N',N'',N''-pentamethyldiethylenetriamine] + O
excess molar enthalpy [kcal/mol]
Settings	303.15 K	323.15 K
x1 = 0.0486	-0.641	–
x1 = 0.0506	–	-0.561
x1 = 0.099	-0.948	–
x1 = 0.1024	–	-0.825
x1 = 0.15	-1.03	-0.908
x1 = 0.2	–	-0.951
x1 = 0.2072	-1.08	–
x1 = 0.2492	-1.05	–
x1 = 0.25	–	-0.927
x1 = 0.3	-1	–
x1 = 0.3062	–	-0.869
x1 = 0.4001	–	-0.77
x1 = 0.4063	-0.841	–
x1 = 0.4895	-0.727	–
x1 = 0.5005	–	-0.618
x1 = 0.6001	–	-0.478
x1 = 0.6117	-0.538	–

NCCNCCO [N-(2-aminoethyl)ethanolamine] + O
303.15 K
Settings	excess molar enthalpy [kcal/mol]
x1 = 0.1031	-0.554
x1 = 0.202	-0.863
x1 = 0.3019	-0.963
x1 = 0.3567	-0.995
x1 = 0.4023	-0.957
x1 = 0.4991	-0.88
x1 = 0.5997	-0.74
x1 = 0.7027	-0.579

NCCCNCCCN [bis(3-aminopropyl)amine] + O
excess molar enthalpy [kcal/mol]
Settings	303.15 K	323.15 K
x1 = 0.0507	–	-0.581
x1 = 0.0508	-0.621	–
x1 = 0.1064	–	-1.05
x1 = 0.1065	-1.11	–
x1 = 0.1991	–	-1.43
x1 = 0.1993	-1.52	–
x1 = 0.3005	-1.57	-1.48
x1 = 0.4049	-1.47	–
x1 = 0.4057	–	-1.34
x1 = 0.4998	-1.33	–
x1 = 0.5003	–	-1.21
x1 = 0.602	-1.09	–
x1 = 0.6022	–	-0.916
x1 = 0.6842	-0.83	-0.744
x1 = 0.8014	–	-0.463
x1 = 0.8015	-0.534	–

NCCNCCN [di(2-aminoethyl)amine] + O
Settings	excess molar enthalpy [kcal/mol]
303.15 K, x1 = 0.0509	-0.542
303.15 K, x1 = 0.1001	-0.981
303.15 K, x1 = 0.1544	-1.33
303.15 K, x1 = 0.1962	-1.48
303.15 K, x1 = 0.2416	-1.56
303.15 K, x1 = 0.3018	-1.59
303.15 K, x1 = 0.4026	-1.52
303.15 K, x1 = 0.501	-1.29
303.15 K, x1 = 0.6025	-1.05
303.15 K, x1 = 0.702	-0.811
303.15 K, x1 = 0.7984	-0.57
323.15 K, x1 = 0.0503	-0.504
323.15 K, x1 = 0.0989	-0.911
323.15 K, x1 = 0.2028	-1.41
323.15 K, x1 = 0.3003	-1.51
323.15 K, x1 = 0.4044	-1.38
323.15 K, x1 = 0.51	-1.21
323.15 K, x1 = 0.6027	-0.938
323.15 K, x1 = 0.7018	-0.762
323.15 K, x1 = 0.7983	-0.512

OCCNCCO [diethanolamine] + O
298.15 K
Settings	excess molar enthalpy [kcal/mol]
x1 = 0.05035	-0.13
x1 = 0.1001	-0.266
x1 = 0.1989	-0.41
x1 = 0.2023	-0.415
x1 = 0.2958	-0.484
x1 = 0.3428	-0.494
x1 = 0.3974	-0.491
x1 = 0.4915	-0.465
x1 = 0.599	-0.38
x1 = 0.7038	-0.304
x1 = 0.795	-0.223
x1 = 0.9029	-0.0989

OCCN(CCO)CCO [triethanolamine] + O
Settings	excess molar enthalpy [kcal/mol]
303.15 K, x1 = 0.0473	-0.128
303.15 K, x1 = 0.1013	-0.222
303.15 K, x1 = 0.2063	-0.308
303.15 K, x1 = 0.3064	-0.334
303.15 K, x1 = 0.3548	-0.335
303.15 K, x1 = 0.4076	-0.327
303.15 K, x1 = 0.4902	-0.292
303.15 K, x1 = 0.5783	-0.267
303.15 K, x1 = 0.71	-0.201
303.15 K, x1 = 0.7943	-0.145
303.15 K, x1 = 0.8959	-0.0758
323.15 K, x1 = 0.0487	-0.119
323.15 K, x1 = 0.1001	-0.207
323.15 K, x1 = 0.2028	-0.288
323.15 K, x1 = 0.3033	-0.317
323.15 K, x1 = 0.3502	-0.322
323.15 K, x1 = 0.4	-0.319
323.15 K, x1 = 0.5021	-0.279
323.15 K, x1 = 0.6021	-0.249
323.15 K, x1 = 0.6989	-0.198
323.15 K, x1 = 0.8006	-0.14
323.15 K, x1 = 0.9009	-0.0679

Reference: the NIST ThermoML archive (doi:10.1016/j.jct.2015.04.030)
